The compounds below were run against T1, UT-B (Homo sapiens, UniProt Q13336) (assay: RBC lysis assay, human RBCs loaded with acetamide). Conditions: Table 5, phthalazinamines; UT-B inhibitory potency.
T1 construct: the indicator cells are red blood cells that endogenously express the UT-B urea transporter; endogenous in cells; host or cells: human red blood cells (whole venous blood, single donor)
T1 sequence (Q13336 1-389): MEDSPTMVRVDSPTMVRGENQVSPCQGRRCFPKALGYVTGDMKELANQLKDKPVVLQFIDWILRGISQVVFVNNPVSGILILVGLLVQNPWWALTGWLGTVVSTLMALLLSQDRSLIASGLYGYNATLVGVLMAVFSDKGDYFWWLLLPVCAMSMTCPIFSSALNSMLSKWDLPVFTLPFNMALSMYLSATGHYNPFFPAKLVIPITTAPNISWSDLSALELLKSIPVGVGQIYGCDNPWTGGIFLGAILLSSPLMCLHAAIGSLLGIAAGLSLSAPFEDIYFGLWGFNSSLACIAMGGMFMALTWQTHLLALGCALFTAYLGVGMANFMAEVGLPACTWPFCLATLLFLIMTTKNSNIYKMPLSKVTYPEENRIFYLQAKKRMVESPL
Type: cell-based

Row | SMILES | EC50
1 | CCN(CC)C(=O)c1ccc(-c2nnc(Nc3ccc(O)cc3)c3ccccc23)cc1 [ureainh-309, N,N-diethyl-4-(4-(4-hydroxyphenylamino)phthalazin-1-yl)benzamide] | 5 µM
2 | CCN(CC)C(=O)c1ccc(-c2nnc(Nc3ccc(C(=O)N(C)C)cc3)c3ccccc23)cc1 [ureainh-310, 4-(4-(4-(diethylcarbamoyl)phenyl)phthalazin-1-ylamino)-N,N-dimethylbenzamide] | 3 µM
3 | COc1ccc(-c2nnc(Nc3ccc(-c4nc5ccccc5[nH]4)cc3)c3ccccc23)cc1 [ureainh-313, N-(4-(1H-benzo[d]imidazol-2-yl)phenyl)-4-(4-methoxyphenyl) phthalazin-1-amine] | 10 µM
4 | CC(=O)Nc1ccc(Nc2nnc(-c3ccc(O)cc3)c3ccccc23)cc1 [ureainh-317, N-(4-(4-(4-hydroxyphenyl)phthalazin-1-ylamino)phenyl)acetamide] | 3 µM
5 | CNC(=O)COc1ccc(Nc2nnc(-c3ccccc3)c3ccccc23)cc1 [ureainh-319, N-methyl-2-(4-(4-phenylphthalazin-1-ylamino)phenoxy)acetamide] | 3 µM
6 | COc1ccc(Nc2nnc(-c3ccccc3)c3ccccc23)cc1 [ureainh-320, N-(4-methoxyphenyl)-4-phenylphthalazin-1-amine] | 4 µM
7 | Cc1ccc(-c2nnc(Nc3ccc(C(N)=O)cc3)c3ccccc23)cc1S(=O)(=O)NCCO [ureainh-324, 4-(4-(3-(N-(2-hydroxyethyl)sulfamoyl)-4-methylphenyl)phthalazin-1-ylamino) benzamide] | 5 µM
8 | Cc1ccc(-c2nnc(Nc3ccc(O)cc3)c3ccccc23)cc1S(=O)(=O)N1CCOCC1 [ureainh-328, 4-(4-(4-methyl-3-(morpholinosulfonyl)phenyl)phthalazin-1-ylamino)phenol] | 3 µM
9 | Cc1ccc(-c2nnc(Nc3ccc(C(N)=O)cc3)c3ccccc23)cc1S(N)(=O)=O [ureainh-329, 4-(4-(4-methyl-3-sulfamoylphenyl)phthalazin-1-ylamino) benzamide] | 5 µM
10 | CNC(=O)COc1ccc(Nc2nnc(-c3ccc(C)c(S(N)(=O)=O)c3)c3ccccc23)cc1 [ureainh-330, N-methyl-2-(4-(4-(4-methyl-3-sulfamoylphenyl)phthalazin-1-ylamino)phenoxy)acetamide] | 10 µM
11 | Cc1ccc(-c2nnc(Nc3ccc(O)cc3)c3ccccc23)cc1S(=O)(=O)NC(C)(C)CO [ureainh-331, N-(1-hydroxy-2-methylpropan-2-yl)-5-(4-(4-hydroxyphenylamino)phthalazin-1-yl)-2-methylbenzenesulfonamide] | 9 µM
12 | Cc1ccc(-c2nnc(Oc3ccccc3)c3ccccc23)cc1 [ureainh-333, 1-phenoxy-4-p-tolylphthalazine] | 3 µM

More lines, now with the values ahead:

Row | EC50 | SMILES
13 | 0.1 µM | COc1ccc(Nc2nnc(-c3ccc(C(N)=O)cc3)c3ccccc23)cc1 [ureainh-301, 4-(4-(4-methoxyphenylamino)phthalazin-1-yl)benzamide]
14 | 0.2 µM | CN(C)C(=O)c1ccc(Nc2nnc(-c3ccc(C(N)=O)cc3)c3ccccc23)cc1 [ureainh-303, 4-(4-(4-carbamoylphenyl)phthalazin-1-ylamino)-N,N-dimethylbenzamide]
15 | 0.6 µM | CNC(=O)c1ccc(Nc2nnc(-c3ccc(C(N)=O)cc3)c3ccccc23)cc1 [ureainh-304, 4-(4-(4-carbamoylphenyl)phthalazin-1-ylamino)-N-methylbenzamide]
16 | 2 µM | NC(=O)c1ccc(-c2nnc(Nc3ccc(O)cc3)c3ccccc23)cc1 [ureainh-306, 4-(4-(4-hydroxyphenylamino)phthalazin-1-yl)benzamide]
17 | 3 µM | NC(=O)c1ccc(-c2nnc(Nc3ccc(S(N)(=O)=O)cc3)c3ccccc23)cc1 [ureainh-307, 4-(4-(4-sulfamoylphenylamino)phthalazin-1-yl)benzamide]
18 | 2 µM | CCN(CC)C(=O)c1ccc(-c2nnc(Nc3ccc(C(=O)NC)cc3)c3ccccc23)cc1 [ureainh-308, N,N-diethyl-4-(4-(4-(methylcarbamoyl)phenylamino)phthalazin-1-yl)benzamide]
19 | 0.8 µM | CNC(=O)COc1ccc(Nc2nnc(-c3ccc(C(=O)NCCO)cc3)c3ccccc23)cc1 [ureainh-311, N-(2-hydroxyethyl)-4-(4-(4-(2-(methylamino)-2-oxoethoxy)phenylamino)phthalazin-1-yl)benzamide]
20 | 1 µM | COc1ccc(-c2nnc(Nc3ccc(OCC(N)=O)cc3)c3ccccc23)cc1 [ureainh-312, 2-(4-(4-(4-methoxyphenyl)phthalazin-1-ylamino)phenoxy)acetamide]
21 | 2 µM | Cc1ccc(-c2nnc(Nc3ccc(OCC(N)=O)cc3)c3ccccc23)cc1 [ureainh-314, 2-(4-(4-p-tolylphthalazin-1-ylamino)phenoxy) acetamide]
22 | 2 µM | CNC(=O)COc1ccc(Nc2nnc(-c3ccc(C)cc3)c3ccccc23)cc1 [ureainh-315, N-methyl-2-(4-(4-p-tolylphthalazin-1-ylamino)phenoxy)acetamide]
23 | 2 µM | COc1ccc(Nc2nnc(-c3ccc(O)cc3)c3ccccc23)cc1 [ureainh-316, 4-(4-(4-methoxyphenylamino)phthalazin-1-yl)phenol]
24 | 2 µM | NC(=O)COc1ccc(Nc2nnc(-c3ccccc3)c3ccccc23)cc1 [ureainh-318, 2-(4-(4-phenylphthalazin-1-ylamino)phenoxy) acetamide]
25 | 1 µM | Cc1ccc(-c2nnc(Nc3ccc(C(N)=O)cc3)c3ccccc23)cc1S(=O)(=O)N(C)C [ureainh-321, 4-(4-(3-(N,N-dimethylsulfamoyl)-4-methylphenyl)phthalazin-1-ylamino) benzamide]
26 | 2 µM | Cc1ccc(-c2nnc(Nc3ccc(OCC(N)=O)cc3)c3ccccc23)cc1S(=O)(=O)N(C)C [ureainh-322, 2-(4-(4-(3-(N,N-dimethylsulfamoyl)-4-methylphenyl)phthalazin-1-ylamino)phenoxy)acetamide]
27 | 2 µM | COC(=O)c1ccc(Nc2nnc(-c3ccc(C)c(S(=O)(=O)NCCO)c3)c3ccccc23)cc1 [ureainh-323, methyl 4-(4-(3-(N-(2-hydroxyethyl)sulfamoyl)-4-methylphenyl)phthalazin-1-ylamino) benzoate]
28 | 2 µM | CNS(=O)(=O)c1cc(-c2nnc(Nc3ccc(OCC(N)=O)cc3)c3ccccc23)ccc1C [ureainh-325, 2-(4-(4-(4-methyl-3-(N-methylsulfamoyl)phenyl)phthalazin-1-ylamino)phenoxy)acetamide]
29 | 2 µM | CNC(=O)COc1ccc(Nc2nnc(-c3ccc(C)c(S(=O)(=O)NC)c3)c3ccccc23)cc1 [ureainh-326, N-methyl-2-(4-(4-(4-methyl-3-(N-methylsulfamoyl)phenyl)phthalazin-1-ylamino)phenoxy) acetamide]
30 | 2 µM | COc1ccc(-c2nnc(Oc3ccccc3)c3ccccc23)cc1 [ureainh-332, 1-(4-methoxyphenyl)-4-phenoxyphthalazine]

Same assay, conditions: Table 7, aminobenzimidazoles; UT-B inhibitory potency

Row | SMILES | EC50
31 | CCCn1c(NCc2cc(Cl)ccc2O)nc2ccccc21 [ureainh-401, 4-chloro-2-((1-propyl-1H-benzo[d]imidazol-2-ylamino)methyl)phenol] | 0.3 µM
32 | CCn1c(NCc2cc(Cl)ccc2O)nc2ccccc21 [ureainh-402, 4-chloro-2-((1-ethyl-1H-benzo[d]imidazol-2-ylamino)methyl)phenol] | 0.4 µM
